Laboratory results from US8557298B2, “Medicaments for chemotherapeutic treatment of disease” (Provectus Pharmatech, Inc., priority 1998, dated 2013).

Columns and labels:
[1] = Toxicology data (LD50), murine administration; format: in vivo; conditions: for LD50 p.o.: murine oral (p.o.) administration
[2] = Partition coefficient Kp (n-octanol / phosphate buffered saline); format: physicochemical; conditions: n-octanol vs phosphate buffered saline, PBS, pH = 7.4
Procedure: For example, to a first approximation, an agent's potential for tissue accumulation can be estimated based on the partition coefficient, Kp. This in vitro parameter is purported to have predictive value relating to in vivo agent delivery at the cellular level. […] Kp is determined by measuring the ratio of equilibrium concentrations of an agent in a lipophilic phase (n-octanol) contacted with an aqueous phase (phosphate buffered saline, PBS, pH=7.4).

Staphylococcus aureus = format: cell-based
Procedure: The inventors tested this hypothesis by evaluating the chemotherapeutic properties of Rose Bengal and Erythrosin B on cultures of the bacterium Staphylococcus aureus. […] In both illustrations, test cultures were exposed to the indicated agents at the indicated concentrations for the indicated times; cytotoxicity was subsequently estimated by serial dilution (10×dilution per step) of the treated cell cultures into 96-well plates containing fresh culture media; these samples were then incubated under standard conditions. Viability (e.g., Logs of Growth) for each test culture was then estimated by counting the number of dilution steps resulting in positive cell growth. Cytotoxicity upon exposure to a particular agent is thereby estimated by the reduction in viability relative to unexposed (e.g., control) cultures.

various murine tumors = conditions: within 24 hours
[3] = test system: BNL/SV40 liver cell tumor; test: Intratumoral/peritumoral injection of 10% Rose Bengal into BNL/SV40 liver cell tumors in nude mice; format: in vivo, nude mice
[4] = Systemic administration of Rose Bengal to obese laboratory mice, tissue accumulation; format: in vivo; conditions: aqueous solution, i.p. or p.o.
Description: For example, Rose Bengal's relatively large partition coefficient is indicative of a preference for accumulation in lipophilic tissue, such as cutaneous lipocytes.

[5] = Tissue pharmacokinetics of Rose Bengal after intraperitoneal injection into tumor-bearing nude mice; format: in vivo
Procedure: Tissue samples (liver, abdominal wall, and tumor) were immediately obtained from the sacrificed mice, homogenized, centrifuged for 10 minutes at 1520×g, and the resulting supernatant collected and analyzed fluorimetrically. […] At the same time, persistent accumulation occurs in tumor tissue, with greater than 50% of maximum measured agent concentration maintained in such tissues for periods in excess of 24 hours.

[6] = test system: recurrent aggressive sarcoma tumor; test: Intratumoral injection of 10% Rose Bengal into naturally-occurring sarcoma in a dog; format: in vivo
[7] = murine intravenous (i.v.) administration

SMILES	LD50 i.v. [1, 7] [mg/kg]	LD50 p.o. [1]	Partition coefficient, Kp [2]	Cytotoxic effect (reduction in viability, Logs of Growth) (Staphylococcus aureus)	further results
O=C([O-])c1c(Cl)c(Cl)c(Cl)c(Cl)c1-c1c2cc(Br)c(=O)c(Br)c-2oc2c(Br)c([O-])c(Br)cc12.[Na+].[Na+] [Phloxine B]	310	310 mg/kg	1.1		
CC1=C(CCC(=O)O)c2cc3[nH]c(cc4nc(cc5[nH]c(cc1n2)c(C)c5C(C)O)C(C)=C4C(C)O)c(C)c3CCC(=O)O (stereo not drawn) [Porphyrin HpIX, reference compound]		>1,000 mg/kg	1.5		
O.O=C([O-])c1ccccc1-c1c2cc(I)c(=O)c(I)c-2oc2c(I)c([O-])c(I)cc12.[Na+].[Na+] [Erythrosin B]	370	>1,000 mg/kg	1.9	no significant chemotherapeutic response	
CC1(C)C(/C=C/C=C/C=C/C=C2\N(CCCCS(=O)(=O)O)c3ccc4ccccc4c3C2(C)C)=[N+](CCCCS(=O)(=O)[O-])c2ccc3ccccc3c21 [Indocyanine Green, reference compound]					LD50 ([1]; mouse, in vivo, murine intravenous (i.v.) administration): 60 mg/kg; Tumor retention after i.t. administration (various murine tumors): substantively migrates out of tumors
O=C1OC2(c3cc(I)c(O)c(I)c3Oc3c2cc(I)c(O)c3I)c2c(Cl)c(Cl)c(Cl)c(Cl)c21 [Rose Bengal, 4,5,6,7-Tetrachloro-2′,4′,5′,7′-tetraiodofluorescein]		>1,000 mg/kg	11.5	marked chemotherapeutic response that is concentration dependent	Effect on tumor growth ([3]; i.t. and p.t. injection of 10% Rose Bengal, over a period of several weeks): stasis, with no significant change in tumor volume; Time to clearance from normal tissue (tumor tissue remained stained) ([3]; mouse, in vivo): ≤ 7 days; Effect on normal tissue and adjacent tumor tissue ([3]; peritumoral injection alone): no significant effect on normal tissue, nor on the adjacent tumor tissue; Retention in normal tissue ([3]; peritumoral injection alone, after 24 hours): no detectable retention in normal tissue; Tissue accumulation after systemic administration [4]: highly selective accumulation of said agent in certain tissues; Time for concentrations in normal tissue (abdominal wall) and liver to diminish to unmeasurable levels ([5]; i.p., 50-100 μL of 0.5% Rose Bengal in saline, tumor-bearing nude mice): ≤ 24 h; Share of maximum measured agent concentration maintained in tumor tissue ([5]; tumor tissue, periods in excess of 24 hours after i.p. injection): greater than 50%; Tumor response at follow-up examination ([6]; after 19 days): further measurable decrease in tumor size; Tumor response at follow-up examination ([6]; approximately 5 cc of 10% solution into approximately 20 cc tumor, after five days): measurable decrease in tumor density along with significant edema and apparent necrosis of large sections of the tumor; Side-effects in healthy tissue surrounding the tumor ([6]; intratumoral injection, dog): no significant side-effects
